# Experimental data: patent US20210017607A1, “Methods of Predicting Responsiveness to Cancer Therapies” (The University of Chicago, priority 2019, published 2021)
# Square brackets hold non-standard residues; d marks the D form. Peptide text beside a SMILES is read from it. * marks the point of attachment. dPhe(4-NHCONH2) = NC(=O)Nc1ccc(C[C@@H](N)C(=O)O)cc1; Dihydroorotyl(S) = O=C1C[C@@H](C(=O)*)NC(=O)N1; dPhe(4-Cl) = N[C@H](Cc1ccc(Cl)cc1)C(=O)O; Phe(4-NH2) = Nc1ccc(C[C@H](N)C(=O)O)cc1; d2Nal = N[C@H](Cc1ccc2ccccc2c1)C(=O)O; Lys(iPr) = CC(C)NCCCC[C@H](N)C(=O)O; d3Pal = N[C@H](Cc1cccnc1)C(=O)O
# Key:
# [1] = test system: Myc-CAP (STING^lo) tumors; assay: Immune profiling of Myc-CAP tumors (flow cytometry, qRT-PCR); format: in vivo, mouse; details: degarelix for 10 days
# Method: FIGS. 24A-24G. […] Myc-CAP (STING^lo) tumor-bearing syngeneic mice were treated with degarelix (chemical castration) for 10 days. At the end of treatment, tumors were harvested and analyzed by flow cytometry for infiltration of CD45+ immune cells (24A), macrophages (24B) and CD4/CD8 T cells (24C-24D). Mean fluorescence intensity (MFI) is depicted for PD-Ll expression on CD45−/CD45+ cells (24E-24F) and TAMs (24G) within the TME; n=3-5 animals/group; Significance/p-values were calculated by Un-paired t-test.
# FIGS. 26A-26D. […] (26C-26D) Single-cell suspensions were generated from harvested tumors and analyzed by flow cytometry for the indicated immune cell populations and their activation states. […] Significance/p-values were calculated by […].
# FIGS. 27A-27D. […] Single-cell suspensions were generated from harvested tumors and analyzed by flow cytometry for CD4 infiltration (27A) and activation (27C). (27B, 27D) Single-cell suspensions were generated from harvested tumors and analyzed by flow cytometry for the indicated immune cell populations and their activation states. […] Significance/p-values were calculated by one-way ANOVA.
# FIGS. 28A and 28B. […] (28B) Single-cell suspensions were generated from harvested tumors and analyzed by flow cytometry for macrophage (F4/80+) Arginase I expression. n=3 animals/group; Significance/p-values were calculated by one-way ANOVA. […]
# [2] = test system: Myc-CAP (STING^lo) tumors; assay: Myc-CAP syngeneic tumor growth; format: in vivo, mouse; details: immunocompetent syngeneic mice
# Method: FIGS. 25A and 25B. […] (25A-25B) Myc-CAP (STING^lo) tumor-bearing syngeneic mice were treated with the indicated drug(s) until untreated tumors reached approx. 2500 mm^3. Tumor volume curves for duration of treatment are shown.
# FIGS. 26A-26D. […] Immunodeficient athymic nude (26A) and NOD-SCID (26B) mice were engrafted with Myc-CAP (STING^lo) tumors and treated with the indicated drug(s) until untreated tumors reached approx. 2000 mm^3. Tumor volume curves for duration of treatment are shown. For 26A-26B, n=3-4 mice per group. (26C-26D) Single-cell suspensions were generated from harvested tumors and analyzed by flow cytometry for the indicated immune cell populations and their activation states. Data are represented relative to CD45+ immune cells. For 26C-26D, n=3-5 animals per treatment group from 2 independent experiments. Significance/p-values were calculated by […].
# FIGS. 29A-29M. […] Myc-CAP cancer cells were treated with the indicated drugs singly or in combination for 36 hours. (29A) Cells were stained with anti-mouse specific p-γH2AX antibody and a fluorescently labeled secondary antibody for determination of DNA DSBs, which were quantified by confocal microscopy. (29B) Protein extracts from cells in 29A were analyzed for the indicated pharmacodynamic biomarkers by western blotting; (29C) Annexin V-PI staining was done to assess frequency of live cells (Annexin V^− PI^−) following drug treatment. (29D) Ultracentrifugation was utilized to purify microvesicles (MVs) from supernatants in treatment groups in (29A) and associated DNA DSBs was quantified by Nanodrop®. Independent experiments n=2. (29E) Ultracentrifugation was utilized to purify MVs from supernatants in indicated treatment groups in FIG. 17A, and associated DNA DSBs were quantified by Nanodrop®; n=2 independent experiments. (29F) Syngeneic mice were engrafted with Myc-CAP (STING^lo) cells, and tumors were harvested when the tumor volume reached 400 mm^3. Single cell suspensions of the tumors were treated with the indicated drug(s), in the presence or absence of GW4869 (MV biogenesis inhibitor). (29G) Bone marrow derived macrophage (BMDMs) were co-cultured for 30 hours with supernatants (−/+ exogenous 50 units of DNase I pre-treatment for 30 minutes) from Myc-CAP cells that were treated with the indicated drug(s) for 36 hours. (29H) cGAMP (10 μg/mL) was pre-incubated with 10 units of DNAse I or mock control for 30 minutes and then added to BMDMs for 30 hours. (29I-29L) STING^+/+/STING^−/− BMDMs were co-cultured for 36 hours with supernatants from Myc-CAP and B6-Myc cancer cells that were treated with the indicated drug(s) for 36 hours. Supernatants were collected from 29F-29L at the end of treatment and analyzed for IFNβ1 by ELISA. (29M) Myc-CAP (STING^lo) tumor-bearing mice were treated with the indicated drug(s) until tumors first reached approx. 2500 mm^3. For the degerelix/rucaparib/buparlisib combination, additional cohorts of mice underwent concomitant treatment with STING antagonist H-151 or GW4869. Tumor volume was recorded daily for duration of experiment. For in vitro experiments, n=2 independent experiments and for in vivo experiments n=3-4 animals /group.
structure (smiles),measurement,setting,value
CC(=O)N[C@H](Cc1ccc2ccccc2c1)C(=O)N[C@H](Cc1ccc(Cl)cc1)C(=O)N[C@H](Cc1cccnc1)C(=O)N[C@@H](CO)C(=O)N[C@@H](Cc1ccc(NC(=O)[C@@H]2CC(=O)NC(=O)N2)cc1)C(=O)N[C@H](Cc1ccc(NC(N)=O)cc1)C(=O)N[C@@H](CC(C)C)C(=O)N[C@@H](CCCCNC(C)C)C(=O)N1CCC[C@H]1C(=O)N[C@H](C)C(N)=O [degarelix] (Ac-[d2Nal][dPhe(4-Cl)][d3Pal]S[Phe(4-NH2)](Dihydroorotyl(S))[dPhe(4-NHCONH2)]L[Lys(iPr)]P[dA]-NH2),immune infiltration and PD-L1 expression within the TME after chemical castration,[1],increases macrophage and CD4+ T cell infiltration and PD-L1 expression
same,tumor growth response,[2],not observed
